# According to patent US11426394B2, “Method to prevent and treat macular degeneration by calcium channel blockers, angiotensin converting enzyme inhibitors, and angiotensin receptor blockers” (priority 2018, dated 2022):
# Legend:
# [1] = in vivo; cited from earlier work
# [2] = test system: wet macular degeneration; assay: Patient with wet macular degeneration: one eye treated, other eye left untreated; assay type: in vivo, human
# Description: (§1) A patient is diagnosed with wet macular degeneration. A composition comprising the calcium channel blocker nifedipine is directly applied to the vitreous surface of one eye while the other eye is left untreated. […] A patient is diagnosed with wet macular degeneration. A composition comprising the ACE inhibitor enalapril is directly applied to the vitreous surface of one eye while the other eye is left untreated. […] A patient is diagnosed with wet macular degeneration. A composition comprising the angiotensin receptor blocker losartan is directly applied to the vitreous surface of one eye while the other eye is left untreated. […] A patient is diagnosed with wet macular degeneration. A composition comprising the calcium channel blocker nifedipine is directly injected into the intraocular space of one eye while the other eye is left untreated. […] A patient is diagnosed with wet macular degeneration. A composition comprising the ACE inhibitor enalapril is directly injected into the intraocular space of one eye while the other eye is left untreated. […] A patient is diagnosed with wet macular degeneration. A composition comprising the angiotensin receptor blocker losartan is directly injected into the intraocular space of one eye while the other eye is left untreated.
# [3] = test system: dry macular degeneration; assay: Patient with dry macular degeneration: one eye treated, other eye left untreated; assay type: in vivo, human
# Description: as §1, with “dry” for “wet”
# [4] = test system: Macular Degeneration; settings: chronic use; cited from earlier work
# [5] = composition directly applied to the vitreous surface of one eye
# [6] = composition directly injected into the intraocular space of one eye
compound,measurement,setting,value
"CC1=C(/C=C/C(C)=C/C=C/C(C)=C/C=C/C=C(C)/C=C/C=C(C)/C=C/C2=C(C)CCCC2(C)C)C(C)(C)CCC1 [Beta carotene, beta carotene]",lung cancer,[1],increase lung cancer
CCOC(=O)[C@H](CCc1ccccc1)N[C@@H](C)C(=O)N1CCC[C@H]1C(=O)O [enalapril],"symptoms of wet macular degeneration, treated eye versus untreated eye",[2]; [5],reduced symptoms of wet macular degeneration
same,"symptoms of wet macular degeneration, treated eye versus untreated eye",[2]; [6],reduced symptoms of wet macular degeneration
same,"symptoms of dry macular degeneration, treated eye versus untreated eye",[3]; [5],reduced symptoms of dry macular degeneration
same,"symptoms of dry macular degeneration, treated eye versus untreated eye",[3]; [6],reduced symptoms of dry macular degeneration
CCCCc1nc(Cl)c(CO)n1Cc1ccc(-c2ccccc2-c2nn[nH]n2)cc1 [losartan],"symptoms of wet macular degeneration, treated eye versus untreated eye",[2]; [5],reduced symptoms of wet macular degeneration
same,"symptoms of wet macular degeneration, treated eye versus untreated eye",[2]; [6],reduced symptoms of wet macular degeneration
same,"symptoms of dry macular degeneration, treated eye versus untreated eye",[3]; [5],reduced symptoms of dry macular degeneration
same,"symptoms of dry macular degeneration, treated eye versus untreated eye",[3]; [6],reduced symptoms of dry macular degeneration
CC(=O)Oc1ccccc1C(=O)O [aspirin],association with Macular Degeneration,[4],increase in Macular Degeneration
tocopherol,all-cause mortality,[1],increase in all-cause mortality
